Measured values published in patent publication US20230202981A1, “NOVEL SMALL MOLECULES FOR TARGETED DEGRADATION OF UNTARGETABLE KRAS IN CANCER THERAPY” (Pillai Universal LLC, priority 2020, published 2023).

What was measured:
[1] = tested on: KRAS downstream signaling proteins in wild type KRAS; assay: Downstream signaling proteins, wild type KRAS (protein and gene expression analysis); type: cell-based
normal cell lines = assay: Toxicity in normal cell lines; type: cell-based

Q: For `CCCCc1ncc(C(=O)C2CC=C(C(N)=O)N2)cc1C(=O)OCC` (stereo not shown) [Compound 1], which “expression of KRAS downstream signaling proteins MEK, RAF and PI3K” value [1] is on record?
A: Its value is “has not altered the expression”.

Q: And the pERK level ([1]; control 1.42 ± 0.069)?
A: The pERK level was 1.46 ± 0.23.

Q: What about the pCRAF level ([1]; control 1.52 ± 0.025) of the same compound?
A: The pCRAF level was 1.42 ± 0.25.

Q: What about the pP13K level ([1]; control 1.85 ± 0.32) of the same compound?
A: The pP13K level was 1.62 ± 0.63.

Q: And the pAKt level ([1]; control 1.89 ± 0.63)?
A: The pAKt level was 1.72 ± 0.14.

Q: What about the pMEK level ([1]; control 1.96 ± 0.22) of the same compound?
A: Its pMEK level is 1.85 ± 0.32.

Q: And the “toxicity in normal cell lines” value (normal cell lines)?
A: The value was “minimum toxicity”.
